Source: ChEMBL document CHEMBL1201862, “PubChem BioAssay data set” (2004)
The source made the active and inactive calls.

How the values were obtained:
Orexin receptor type 2 [1] = biological target: T1, Orexin receptor type 2 (Homo sapiens, UniProt O43614); assay: Counterscreen assay for antagonists of the orexin 1 receptor (OX1R; HCRTR1): Fluorescence-based cell-based dose response assay for antagonists of the orexin 2 receptor (OX2R; HCRTR2), run by assay provider.; assay type: functional
T1 sequence (O43614 whole entry): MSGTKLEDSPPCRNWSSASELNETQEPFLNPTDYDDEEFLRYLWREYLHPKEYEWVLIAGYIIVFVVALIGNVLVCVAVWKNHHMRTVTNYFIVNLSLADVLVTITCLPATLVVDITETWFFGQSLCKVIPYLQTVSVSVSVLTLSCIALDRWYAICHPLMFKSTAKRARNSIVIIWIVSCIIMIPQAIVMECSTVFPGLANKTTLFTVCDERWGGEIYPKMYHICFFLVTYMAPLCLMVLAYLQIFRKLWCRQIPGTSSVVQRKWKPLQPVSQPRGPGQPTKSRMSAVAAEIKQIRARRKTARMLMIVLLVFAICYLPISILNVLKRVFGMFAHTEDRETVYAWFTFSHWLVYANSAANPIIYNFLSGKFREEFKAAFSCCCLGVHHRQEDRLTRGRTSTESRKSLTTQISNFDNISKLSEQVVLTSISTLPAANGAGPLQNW

CHO-K1 = assay: (§1) Counterscreen for antagonists of the orexin 1 receptor (OX1R; HCRTR1): Homogeneous time resolved fluorescence (HTRF)-based cell-based dose response assay to identify antagonists of the parental CHO-K1 cell line. [Related pubchem assays (depositor defined):AID434989, AID435008, AID463079, AID485270, AID492963, AID492964, AID492965, AID493232, AID504699, AID504701]; assay type: functional; details: Cricetulus griseus
[2] = biological target: T2, Orexin/Hypocretin receptor type 1 (Homo sapiens, UniProt O43613); assay: Homogeneous Time Resolved Fluorescence (HTRF)-based cell-based high throughput dose response assay for antagonists of the orexin 1 receptor (OX1R; HCRTR1). [Related pubchem assays (depositor defined):AID434989, AID435008, AID463079, AID485270, AID492963, AID492964, AID492965, AID493232, AID504717, AID504718]; assay type: functional
T2 sequence (O43613 whole entry): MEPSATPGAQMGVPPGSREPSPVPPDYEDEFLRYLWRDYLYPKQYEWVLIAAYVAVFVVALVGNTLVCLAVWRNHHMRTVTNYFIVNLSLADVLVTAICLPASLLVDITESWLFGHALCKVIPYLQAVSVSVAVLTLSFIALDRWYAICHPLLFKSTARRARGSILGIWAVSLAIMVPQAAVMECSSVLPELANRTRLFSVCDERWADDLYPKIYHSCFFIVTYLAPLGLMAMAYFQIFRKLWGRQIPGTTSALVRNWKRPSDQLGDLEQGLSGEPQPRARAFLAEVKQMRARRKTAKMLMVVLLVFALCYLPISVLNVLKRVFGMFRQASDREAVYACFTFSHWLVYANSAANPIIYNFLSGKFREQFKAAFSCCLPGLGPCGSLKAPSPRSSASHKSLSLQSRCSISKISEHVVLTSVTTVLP

[3] = biological target: T2, Orexin/Hypocretin receptor type 1; assay: Fluorescence-based cell-based high throughput dose response assay for antagonists of the orexin 1 receptor (OX1R; HCRTR1). [Related pubchem assays (depositor defined):AID434989, AID435008, AID463079, AID485270, AID492963, AID492964, AID492965, AID493232, AID504717, AID504718]; assay type: functional
[4] = as §1, with “Fluorescence-based” for “Homogeneous time resolved fluorescence (HTRF)-based”, “cell-based high throughput” for “cell-based”, “CHO” for “CHO-K1”; assay type: functional
Orexin receptor type 2 [5] = biological target: T1, Orexin receptor type 2; assay: Counterscreen assay for antagonists of the orexin 1 receptor (OX1R; HCRTR1): Homogeneous Time Resolved Fluorescence (HTRF)-based cell-based dose response assay for antagonists of the orexin 2 receptor (OX2R; HCRTR2), run by assay provider.; assay type: functional
[6] = biological target: T3, Zinc finger protein mex-5 (Caenorhabditis elegans, UniProt Q9XUB2); assay: MEX-5/TCR-2 RNA interaction inhibitors, dose response, biochemical, C. elegans, fluorescence polarization (AID 1960)
T3 sequence (Q9XUB2 whole entry): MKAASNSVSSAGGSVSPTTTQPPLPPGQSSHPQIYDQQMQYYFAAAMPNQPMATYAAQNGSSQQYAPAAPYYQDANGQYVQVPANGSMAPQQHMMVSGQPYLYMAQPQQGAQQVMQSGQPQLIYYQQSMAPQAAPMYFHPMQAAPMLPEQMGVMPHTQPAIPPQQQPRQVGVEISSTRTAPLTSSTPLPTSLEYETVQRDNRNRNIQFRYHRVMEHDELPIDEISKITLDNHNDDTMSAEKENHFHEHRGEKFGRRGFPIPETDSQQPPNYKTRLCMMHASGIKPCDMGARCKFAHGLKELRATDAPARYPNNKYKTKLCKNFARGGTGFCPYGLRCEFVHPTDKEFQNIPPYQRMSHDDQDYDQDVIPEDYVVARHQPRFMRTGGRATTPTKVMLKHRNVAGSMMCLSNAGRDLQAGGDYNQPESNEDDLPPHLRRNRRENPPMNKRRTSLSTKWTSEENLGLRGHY

[7] = biological target: UDP-galactopyranose mutase (Mycobacterium tuberculosis, UniProt P9WIQ1); assay: Inhibitors of Mycobacterium tuberculosis UDP-galactopyranose mutase (UGM) enzyme Measured in Biochemical System Using Plate Reader - 2105-02_Inhibitor_Dose_CherryPick_Activity. [Related pubchem assays (depositor defined):AID504439]
UDP-galactopyranose mutase, sequence (P9WIQ1 whole entry, the tested form may be a part): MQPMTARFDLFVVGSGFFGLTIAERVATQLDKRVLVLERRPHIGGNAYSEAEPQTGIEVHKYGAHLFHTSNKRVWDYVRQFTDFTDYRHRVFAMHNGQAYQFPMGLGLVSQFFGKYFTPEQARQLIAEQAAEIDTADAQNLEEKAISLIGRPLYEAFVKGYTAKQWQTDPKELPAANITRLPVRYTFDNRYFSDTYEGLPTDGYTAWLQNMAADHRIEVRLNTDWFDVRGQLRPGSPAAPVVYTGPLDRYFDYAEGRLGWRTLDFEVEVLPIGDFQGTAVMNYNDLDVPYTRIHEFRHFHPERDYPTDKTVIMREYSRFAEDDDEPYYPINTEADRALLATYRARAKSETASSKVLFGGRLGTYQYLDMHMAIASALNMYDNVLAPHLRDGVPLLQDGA

[8] = biological target: T4, RNA-binding protein pos-1 (Caenorhabditis elegans, UniProt G5EF15); assay: inhibitors of POS-1/mex-3 RNA binding, dose response, biochemical, fluorescence polarization (AID 1964);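 further: purified POS-1 fused to maltose binding protein made in E. coli; potency of compounds blocking POS-1 binding to fluorescent RNA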
T4 sequence (G5EF15 whole entry): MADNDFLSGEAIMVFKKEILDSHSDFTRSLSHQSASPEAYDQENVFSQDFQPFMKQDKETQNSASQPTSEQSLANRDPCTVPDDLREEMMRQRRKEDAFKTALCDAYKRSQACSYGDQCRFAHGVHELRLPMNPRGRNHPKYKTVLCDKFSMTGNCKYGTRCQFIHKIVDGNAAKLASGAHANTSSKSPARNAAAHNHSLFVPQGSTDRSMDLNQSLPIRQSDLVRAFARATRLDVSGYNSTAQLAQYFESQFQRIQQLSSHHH

HEK293 [9] = assay: HEK cell cytotoxicity by LDH release, dose response, cytotoxicity control for IDE activator project, fluorescence, HEK cells (AID 588440); assay type: functional, cell-based; details: Homo sapiens;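 further: cytotoxicity by LDH release measuring loss of membrane integrity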
Insulin-degrading enzyme [10] = biological target: T5, Insulin-degrading enzyme (Homo sapiens, UniProt P14735); assay: activators of recombinant IDE enzyme, dose response, counter-screen for IDE activator project, biochemical, fluorescence polarization (AID 588681)
T5 sequence (P14735 whole entry): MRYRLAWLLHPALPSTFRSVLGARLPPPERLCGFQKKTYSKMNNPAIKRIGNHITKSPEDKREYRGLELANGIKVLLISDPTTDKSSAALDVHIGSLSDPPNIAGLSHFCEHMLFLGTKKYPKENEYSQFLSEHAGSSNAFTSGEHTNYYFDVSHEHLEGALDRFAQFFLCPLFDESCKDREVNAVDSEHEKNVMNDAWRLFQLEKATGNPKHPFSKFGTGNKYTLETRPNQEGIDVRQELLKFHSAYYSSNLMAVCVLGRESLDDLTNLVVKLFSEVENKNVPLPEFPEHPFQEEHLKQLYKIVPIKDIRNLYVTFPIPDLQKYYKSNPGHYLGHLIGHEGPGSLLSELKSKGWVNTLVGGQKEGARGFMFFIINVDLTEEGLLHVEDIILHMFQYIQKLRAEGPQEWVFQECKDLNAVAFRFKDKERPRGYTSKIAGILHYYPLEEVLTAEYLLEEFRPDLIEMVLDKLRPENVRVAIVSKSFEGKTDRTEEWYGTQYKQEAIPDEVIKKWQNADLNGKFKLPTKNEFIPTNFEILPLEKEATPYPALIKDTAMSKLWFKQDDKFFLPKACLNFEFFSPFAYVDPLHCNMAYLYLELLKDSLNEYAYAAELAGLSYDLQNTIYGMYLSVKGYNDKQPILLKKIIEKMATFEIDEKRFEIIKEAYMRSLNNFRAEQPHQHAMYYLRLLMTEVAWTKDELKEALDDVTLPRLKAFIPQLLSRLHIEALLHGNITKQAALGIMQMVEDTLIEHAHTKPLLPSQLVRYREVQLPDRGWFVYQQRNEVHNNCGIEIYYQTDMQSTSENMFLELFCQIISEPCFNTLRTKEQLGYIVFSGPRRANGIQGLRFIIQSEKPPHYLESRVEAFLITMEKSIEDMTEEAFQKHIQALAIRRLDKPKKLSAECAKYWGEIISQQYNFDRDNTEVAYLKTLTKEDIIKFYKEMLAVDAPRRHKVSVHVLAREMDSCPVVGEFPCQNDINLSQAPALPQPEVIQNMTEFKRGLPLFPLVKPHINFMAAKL

ORF 73 = biological target: T6, ORF 73 (Human herpesvirus 8, UniProt O40947); assay: inhibitors of C-LANA binding to LBS DNA, dose response, biochemical, fluorescence polarization, cherry-picked samples (AID 504725); design: species or system Human gammaherpesvirus 8;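 further: fluorescence polarization of a labeled DNA duplex reporting LANA DNA binding; potency is for inhibitors that block LANA binding to the DNA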
T6 sequence (O40947 whole entry): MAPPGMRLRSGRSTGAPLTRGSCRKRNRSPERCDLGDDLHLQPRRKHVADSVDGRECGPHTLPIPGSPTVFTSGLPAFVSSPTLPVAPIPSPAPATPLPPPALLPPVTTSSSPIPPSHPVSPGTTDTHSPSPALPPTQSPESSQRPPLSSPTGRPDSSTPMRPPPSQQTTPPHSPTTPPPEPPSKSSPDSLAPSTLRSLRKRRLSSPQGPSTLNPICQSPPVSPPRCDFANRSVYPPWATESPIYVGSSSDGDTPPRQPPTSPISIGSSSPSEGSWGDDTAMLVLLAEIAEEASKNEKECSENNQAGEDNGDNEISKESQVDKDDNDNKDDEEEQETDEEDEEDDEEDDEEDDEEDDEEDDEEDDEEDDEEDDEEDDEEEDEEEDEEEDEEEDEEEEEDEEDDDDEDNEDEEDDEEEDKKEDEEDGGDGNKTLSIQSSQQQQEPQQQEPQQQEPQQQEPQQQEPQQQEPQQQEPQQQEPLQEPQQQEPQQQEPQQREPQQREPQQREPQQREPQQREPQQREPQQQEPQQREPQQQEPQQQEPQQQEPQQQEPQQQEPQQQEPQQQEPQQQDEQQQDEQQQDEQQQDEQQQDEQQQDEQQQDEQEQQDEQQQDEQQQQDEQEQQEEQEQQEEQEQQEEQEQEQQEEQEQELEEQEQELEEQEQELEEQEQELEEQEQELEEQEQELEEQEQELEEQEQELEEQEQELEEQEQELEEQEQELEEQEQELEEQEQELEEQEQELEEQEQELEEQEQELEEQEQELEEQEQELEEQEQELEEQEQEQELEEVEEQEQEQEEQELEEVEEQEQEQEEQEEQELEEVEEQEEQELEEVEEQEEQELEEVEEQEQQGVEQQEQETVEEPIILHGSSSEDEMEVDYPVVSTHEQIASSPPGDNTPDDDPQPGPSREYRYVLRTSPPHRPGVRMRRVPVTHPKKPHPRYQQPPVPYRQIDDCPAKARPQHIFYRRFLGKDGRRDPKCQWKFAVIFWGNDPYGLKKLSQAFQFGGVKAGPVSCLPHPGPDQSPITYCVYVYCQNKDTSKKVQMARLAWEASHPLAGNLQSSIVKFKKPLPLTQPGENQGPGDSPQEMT

HEK293 [11] = assay: optical interference in Abeta FP readout, dose response, artefact control for IDE activator project, biochemical, fluorescence polarization (AID 588442); assay type: functional, cell-based; details: Homo sapiens
Insulin-degrading enzyme [12] = biological target: T5, Insulin-degrading enzyme; assay: activators of endogenous IDE in HEK cells, dose response, cell-based, fluorescence polarization (AID 588439); assay type: functional
Keap1/Nrf2 = Keap1/Nrf2 (Homo sapiens, UniProt Q14145); assay: Keap1-Nrf2 protein-protein interaction inhibitors, dose response, biochemical, fluorescence polarization, cherry-picked samples (AID 588683)
Keap1/Nrf2, sequence (Q16236 whole entry): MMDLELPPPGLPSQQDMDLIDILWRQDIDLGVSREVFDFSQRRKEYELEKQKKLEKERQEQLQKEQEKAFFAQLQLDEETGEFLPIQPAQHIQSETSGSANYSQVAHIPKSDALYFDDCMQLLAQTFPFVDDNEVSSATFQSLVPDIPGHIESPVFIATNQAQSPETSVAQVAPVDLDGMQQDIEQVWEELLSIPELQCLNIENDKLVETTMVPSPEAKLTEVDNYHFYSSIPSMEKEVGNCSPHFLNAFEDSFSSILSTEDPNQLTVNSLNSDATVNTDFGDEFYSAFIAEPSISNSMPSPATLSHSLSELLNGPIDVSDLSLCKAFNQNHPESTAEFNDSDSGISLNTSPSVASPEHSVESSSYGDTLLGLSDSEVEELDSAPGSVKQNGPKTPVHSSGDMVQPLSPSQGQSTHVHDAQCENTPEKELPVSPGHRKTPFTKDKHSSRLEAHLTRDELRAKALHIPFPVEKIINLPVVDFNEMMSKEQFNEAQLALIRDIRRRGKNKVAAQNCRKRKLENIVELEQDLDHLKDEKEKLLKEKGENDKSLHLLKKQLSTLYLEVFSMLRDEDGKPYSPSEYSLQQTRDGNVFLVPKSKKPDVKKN
Keap1/Nrf2, sequence (Q14145 whole entry): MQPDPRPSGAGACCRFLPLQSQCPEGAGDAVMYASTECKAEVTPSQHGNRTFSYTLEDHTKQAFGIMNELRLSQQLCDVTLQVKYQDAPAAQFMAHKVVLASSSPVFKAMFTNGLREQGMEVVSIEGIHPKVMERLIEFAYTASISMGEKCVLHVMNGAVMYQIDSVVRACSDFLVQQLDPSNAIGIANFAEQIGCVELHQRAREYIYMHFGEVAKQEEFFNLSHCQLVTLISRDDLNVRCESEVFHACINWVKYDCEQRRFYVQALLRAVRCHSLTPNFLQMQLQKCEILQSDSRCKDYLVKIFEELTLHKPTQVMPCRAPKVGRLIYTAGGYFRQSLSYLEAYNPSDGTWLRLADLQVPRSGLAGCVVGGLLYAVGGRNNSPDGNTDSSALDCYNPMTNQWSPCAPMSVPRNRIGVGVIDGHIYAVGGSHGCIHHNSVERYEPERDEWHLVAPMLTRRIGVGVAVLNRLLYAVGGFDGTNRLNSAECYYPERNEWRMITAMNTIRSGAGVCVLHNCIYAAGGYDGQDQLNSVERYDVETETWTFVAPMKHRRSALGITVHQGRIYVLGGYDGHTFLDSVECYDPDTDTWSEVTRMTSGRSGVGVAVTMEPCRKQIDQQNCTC

Prothrombin = Prothrombin (Bos taurus, UniProt P00735); assay: thrombin inhibition, dose response, biochemical, fluorescence polarization, uHTS hits (AID 602369); assay type: functional
[13] = biological target: 26S proteasome non-ATPase regulatory subunit 14 (Homo sapiens, UniProt O00487); assay: inhibition of proteasome subunit RPN11 – biochemical, fluorescence polarization, uHTS hits, confirmation (AID 602368); assay type: functional
26S proteasome non-ATPase regulatory subunit 14, sequence (O00487 whole entry): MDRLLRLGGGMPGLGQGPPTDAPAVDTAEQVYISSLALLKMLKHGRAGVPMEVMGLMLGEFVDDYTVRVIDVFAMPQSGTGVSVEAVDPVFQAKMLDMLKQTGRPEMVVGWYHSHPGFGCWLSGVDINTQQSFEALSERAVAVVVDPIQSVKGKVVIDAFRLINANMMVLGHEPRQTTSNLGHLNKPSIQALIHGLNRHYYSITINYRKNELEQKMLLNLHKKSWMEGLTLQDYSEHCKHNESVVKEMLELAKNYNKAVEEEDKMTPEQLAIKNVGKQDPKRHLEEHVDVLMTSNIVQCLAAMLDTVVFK

[14] = biological target: 72 kDa type IV collagenase (Homo sapiens, UniProt P08253); assay: Dose Response validation of uHTS RPN11 inhibitor hits using a MMP-2 Fluorescence assay.; assay type: functional
72 kDa type IV collagenase, sequence (P08253 whole entry): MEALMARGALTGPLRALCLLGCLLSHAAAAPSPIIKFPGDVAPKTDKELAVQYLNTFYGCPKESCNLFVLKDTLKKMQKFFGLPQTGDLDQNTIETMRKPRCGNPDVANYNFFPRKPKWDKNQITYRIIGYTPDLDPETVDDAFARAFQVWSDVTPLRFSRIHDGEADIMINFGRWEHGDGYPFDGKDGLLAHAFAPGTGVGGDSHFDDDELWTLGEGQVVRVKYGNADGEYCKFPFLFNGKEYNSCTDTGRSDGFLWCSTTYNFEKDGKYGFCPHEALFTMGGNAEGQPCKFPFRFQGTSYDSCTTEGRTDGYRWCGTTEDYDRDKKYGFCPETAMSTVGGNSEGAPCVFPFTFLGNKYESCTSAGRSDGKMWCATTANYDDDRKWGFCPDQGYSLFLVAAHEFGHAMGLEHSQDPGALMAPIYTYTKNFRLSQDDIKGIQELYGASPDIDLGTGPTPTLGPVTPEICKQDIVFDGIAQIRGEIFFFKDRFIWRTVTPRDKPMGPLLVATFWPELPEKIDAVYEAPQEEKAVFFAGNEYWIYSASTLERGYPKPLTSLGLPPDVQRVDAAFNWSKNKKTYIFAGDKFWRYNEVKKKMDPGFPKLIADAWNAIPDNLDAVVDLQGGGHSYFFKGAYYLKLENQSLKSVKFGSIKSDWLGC

SMILES | IC50 (Orexin receptor type 2 [1]) | IC50 (CHO-K1) | IC50 [2] | IC50 [3] | IC50 [4] | IC50 (Orexin receptor type 2 [5]) | further results
Cc1ccsc1/C=N/N=C1\C(=O)Nc2ccccc21 | > 88.8 µM (inactive) | 46.8 µM (inactive) | 2.36 µM (active) | 8.44 µM (active) | > 49.7 µM (inactive) | > 50 µM (inactive) | –
O=c1c2ccccc2nc2c3ccccc3c(NCc3ccccn3)nn12 | > 88.8 µM (inactive) | > 66.2 µM (inactive) | 4.96 µM (active) | 16.7 µM (inactive) | > 49.7 µM (inactive) | > 50 µM (inactive) | –
COc1ccc(NC(=O)NS(=O)(=O)c2ccc(C)cc2)cn1 | – | – | – | – | – | – | EC50 [6]: 2.38 µM (inconclusive); AC50 [7]: 90.9 µM (active); EC50 [8]: 2.37 µM (inconclusive); IC50 (HEK293 [9]): > 89.2 µM (inactive); EC50 (Insulin-degrading enzyme [10]): > 54.7 µM (inactive); AC50 (ORF 73): 87.5 µM (active); EC50 (HEK293 [11]): > 55.9 µM (inactive); EC50 (Insulin-degrading enzyme [12]): > 54.7 µM (inactive); AC50 (Keap1/Nrf2): > 52 µM (inactive)
Cc1cc(C)c2cc3c(N)c(C(=O)Nc4c(C)nc(O)nc4O)sc3nc2c1 | – | – | – | – | – | – | IC50 (Prothrombin): 15.5 µM (active); IC50 [13]: 13.2 µM (active); IC50 [14]: > 100 µM (inactive)
